# Laboratory results taken from the supplement of paper PMC4862054.
# System: MDA-MB-468
# Test: normalised response (% of control), CellTox Green; higher = less cell death (100 = DMSO, 0 = benzethonium chloride kill control)
# Conditions: incubation time: 72 h
# Procedure, shortened: (§1)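 A 20 µl suspension of breast cancer cells was seeded into each well of 384-well plates containing compound at 5 concentrations in 10-fold steps over a compound-specific 10,000-fold range. After 72 h incubation, CellTox Green fluorescence (485/520 nm) was read first, and CellTiter-Glo luminescence was read after 10 min at room temperature. Each plate was normalised against 0.1 % DMSO (100) and a positive kill control (0), and each value is the normalised signal at one concentration.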
row,Structure (SMILES),normalised response [%]
1,C[C@]1(O)C[C@@H](c2nc(-c3ccc4ccc(-c5ccccc5)nc4c3)c3c(N)nccn32)C1 [Linsitinib] (1000 nM),75.2
2,Cc1ccc([N+](=O)[O-])cc1S(=O)(=O)N(C)/N=C/c1cnc2ccc(Br)cn12 [PIK-75] (1000 nM),-15.6
3,CC(=O)c1c(C)c2cnc(Nc3ccc(N4CCNCC4)cn3)nc2n(C2CCCC2)c1=O [Palbociclib] (1000 nM),167
4,COc1cc(F)c(F)c(Nc2ccc(I)cc2F)c1NS(=O)(=O)C1(C[C@H](O)CO)CC1 [Refametinib] (1000 nM),120

# System: DU-4475
# Test: as above
# Conditions: incubation time: 72 h
# Procedure, shortened: as §1
row,Structure (SMILES),normalised response [%]
1,C[C@]1(O)C[C@@H](c2nc(-c3ccc4ccc(-c5ccccc5)nc4c3)c3c(N)nccn32)C1 [Linsitinib] (100 nM),96.2
2,C[C@]1(O)C[C@@H](c2nc(-c3ccc4ccc(-c5ccccc5)nc4c3)c3c(N)nccn32)C1 [Linsitinib] (1000 nM),94.9
3,Cc1ccc([N+](=O)[O-])cc1S(=O)(=O)N(C)/N=C/c1cnc2ccc(Br)cn12 [PIK-75] (1000 nM),79
4,CC(=O)c1c(C)c2cnc(Nc3ccc(N4CCNCC4)cn3)nc2n(C2CCCC2)c1=O [Palbociclib] (1000 nM),99
5,COc1cc(F)c(F)c(Nc2ccc(I)cc2F)c1NS(=O)(=O)C1(C[C@H](O)CO)CC1 [Refametinib] (1000 nM),57.4

# System: HCC1599
# Test: as above
# Conditions: incubation time: 72 h
# Procedure, shortened: as §1
row,Structure (SMILES),normalised response [%]
1,C[C@]1(O)C[C@@H](c2nc(-c3ccc4ccc(-c5ccccc5)nc4c3)c3c(N)nccn32)C1 [Linsitinib] (100 nM),93.8
2,C[C@]1(O)C[C@@H](c2nc(-c3ccc4ccc(-c5ccccc5)nc4c3)c3c(N)nccn32)C1 [Linsitinib] (1000 nM),94.6
3,Cc1ccc([N+](=O)[O-])cc1S(=O)(=O)N(C)/N=C/c1cnc2ccc(Br)cn12 [PIK-75] (1000 nM),62.1
4,CC(=O)c1c(C)c2cnc(Nc3ccc(N4CCNCC4)cn3)nc2n(C2CCCC2)c1=O [Palbociclib] (1000 nM),98.1
5,COc1cc(F)c(F)c(Nc2ccc(I)cc2F)c1NS(=O)(=O)C1(C[C@H](O)CO)CC1 [Refametinib] (1000 nM),95.8

# System: MCF-10A
# Test: as above
# Conditions: incubation time: 72 h
# Procedure, shortened: as §1
row,Structure (SMILES),normalised response [%]
1,C[C@]1(O)C[C@@H](c2nc(-c3ccc4ccc(-c5ccccc5)nc4c3)c3c(N)nccn32)C1 [Linsitinib] (100 nM),92.7
2,C[C@]1(O)C[C@@H](c2nc(-c3ccc4ccc(-c5ccccc5)nc4c3)c3c(N)nccn32)C1 [Linsitinib] (1000 nM),75
3,Cc1ccc([N+](=O)[O-])cc1S(=O)(=O)N(C)/N=C/c1cnc2ccc(Br)cn12 [PIK-75] (1000 nM),-12.4
4,CC(=O)c1c(C)c2cnc(Nc3ccc(N4CCNCC4)cn3)nc2n(C2CCCC2)c1=O [Palbociclib] (1000 nM),105
5,COc1cc(F)c(F)c(Nc2ccc(I)cc2F)c1NS(=O)(=O)C1(C[C@H](O)CO)CC1 [Refametinib] (1000 nM),92.6

# System: CAL-148
# Test: as above
# Conditions: incubation time: 72 h
# Procedure, shortened: as §1
row,Structure (SMILES),normalised response [%]
1,C[C@]1(O)C[C@@H](c2nc(-c3ccc4ccc(-c5ccccc5)nc4c3)c3c(N)nccn32)C1 [Linsitinib] (100 nM),76.6
2,C[C@]1(O)C[C@@H](c2nc(-c3ccc4ccc(-c5ccccc5)nc4c3)c3c(N)nccn32)C1 [Linsitinib] (1000 nM),105
3,Cc1ccc([N+](=O)[O-])cc1S(=O)(=O)N(C)/N=C/c1cnc2ccc(Br)cn12 [PIK-75] (1000 nM),86.7
4,CC(=O)c1c(C)c2cnc(Nc3ccc(N4CCNCC4)cn3)nc2n(C2CCCC2)c1=O [Palbociclib] (1000 nM),89.8
5,COc1cc(F)c(F)c(Nc2ccc(I)cc2F)c1NS(=O)(=O)C1(C[C@H](O)CO)CC1 [Refametinib] (1000 nM),99.3

# System: BT-474
# Test: as above
# Conditions: incubation time: 72 h
# Procedure, shortened: as §1
row,Structure (SMILES),normalised response [%]
1,C[C@]1(O)C[C@@H](c2nc(-c3ccc4ccc(-c5ccccc5)nc4c3)c3c(N)nccn32)C1 [Linsitinib] (100 nM),99.3
2,C[C@]1(O)C[C@@H](c2nc(-c3ccc4ccc(-c5ccccc5)nc4c3)c3c(N)nccn32)C1 [Linsitinib] (1000 nM),91
3,Cc1ccc([N+](=O)[O-])cc1S(=O)(=O)N(C)/N=C/c1cnc2ccc(Br)cn12 [PIK-75] (1000 nM),6.93
4,CC(=O)c1c(C)c2cnc(Nc3ccc(N4CCNCC4)cn3)nc2n(C2CCCC2)c1=O [Palbociclib] (1000 nM),95.2
5,COc1cc(F)c(F)c(Nc2ccc(I)cc2F)c1NS(=O)(=O)C1(C[C@H](O)CO)CC1 [Refametinib] (1000 nM),99.7

# System: MFM-223
# Test: as above
# Conditions: incubation time: 72 h
# Procedure, shortened: as §1
row,Structure (SMILES),normalised response [%]
1,C[C@]1(O)C[C@@H](c2nc(-c3ccc4ccc(-c5ccccc5)nc4c3)c3c(N)nccn32)C1 [Linsitinib] (100 nM),99.8
2,C[C@]1(O)C[C@@H](c2nc(-c3ccc4ccc(-c5ccccc5)nc4c3)c3c(N)nccn32)C1 [Linsitinib] (1000 nM),96.5
3,Cc1ccc([N+](=O)[O-])cc1S(=O)(=O)N(C)/N=C/c1cnc2ccc(Br)cn12 [PIK-75] (1000 nM),44.6
4,CC(=O)c1c(C)c2cnc(Nc3ccc(N4CCNCC4)cn3)nc2n(C2CCCC2)c1=O [Palbociclib] (1000 nM),98.4
5,COc1cc(F)c(F)c(Nc2ccc(I)cc2F)c1NS(=O)(=O)C1(C[C@H](O)CO)CC1 [Refametinib] (1000 nM),99.6

# System: MDA-MB-453
# Test: as above
# Conditions: incubation time: 72 h
# Procedure, shortened: as §1
row,Structure (SMILES),normalised response [%]
1,C[C@]1(O)C[C@@H](c2nc(-c3ccc4ccc(-c5ccccc5)nc4c3)c3c(N)nccn32)C1 [Linsitinib] (100 nM),99.3
2,C[C@]1(O)C[C@@H](c2nc(-c3ccc4ccc(-c5ccccc5)nc4c3)c3c(N)nccn32)C1 [Linsitinib] (1000 nM),102
3,Cc1ccc([N+](=O)[O-])cc1S(=O)(=O)N(C)/N=C/c1cnc2ccc(Br)cn12 [PIK-75] (1000 nM),61.6
4,CC(=O)c1c(C)c2cnc(Nc3ccc(N4CCNCC4)cn3)nc2n(C2CCCC2)c1=O [Palbociclib] (1000 nM),101
5,COc1cc(F)c(F)c(Nc2ccc(I)cc2F)c1NS(=O)(=O)C1(C[C@H](O)CO)CC1 [Refametinib] (1000 nM),106

# System: HCC1937
# Test: as above
# Conditions: incubation time: 72 h
# Procedure, shortened: as §1
row,Structure (SMILES),normalised response [%]
1,C[C@]1(O)C[C@@H](c2nc(-c3ccc4ccc(-c5ccccc5)nc4c3)c3c(N)nccn32)C1 [Linsitinib] (1000 nM),124
2,Cc1ccc([N+](=O)[O-])cc1S(=O)(=O)N(C)/N=C/c1cnc2ccc(Br)cn12 [PIK-75] (1000 nM),99.3
3,CC(=O)c1c(C)c2cnc(Nc3ccc(N4CCNCC4)cn3)nc2n(C2CCCC2)c1=O [Palbociclib] (1000 nM),102
4,COc1cc(F)c(F)c(Nc2ccc(I)cc2F)c1NS(=O)(=O)C1(C[C@H](O)CO)CC1 [Refametinib] (1000 nM),113

# System: MDA-MB-231
# Test: as above
# Conditions: incubation time: 72 h
# Procedure, shortened: as §1
row,Structure (SMILES),normalised response [%]
1,C[C@]1(O)C[C@@H](c2nc(-c3ccc4ccc(-c5ccccc5)nc4c3)c3c(N)nccn32)C1 [Linsitinib] (100 nM),83.4
2,C[C@]1(O)C[C@@H](c2nc(-c3ccc4ccc(-c5ccccc5)nc4c3)c3c(N)nccn32)C1 [Linsitinib] (1000 nM),102
